ChEMBL document CHEMBL1131758, “5-fluoro-2-methyl-N-[5-(5H-pyrrolo[2,1-c][1,4]benzodiazepine-10(11H)-yl carbonyl)-2-pyridinyl]benzamide (CL-385004) and analogs as orally active arginine vasopressin receptor antagonists” (Bioorg Med Chem Lett, 1999)

Legend:
Vasopressin V2 receptor [1] = target: T1, Vasopressin V2 receptor (Rattus norvegicus, UniProt Q00788); assay: Displacement of P[3H]-AVP from isolated rat kidney medullary V2 receptor
Vasopressin V1a receptor [2] = target: T2, Vasopressin V1a receptor (Rattus norvegicus, UniProt P30560); assay: Displacement of (Phe-3,4,5 [3H]-) AVP from isolated rat hepatic V1a receptor
Rattus norvegicus [3] = assay: Amount of urine output was measured in rat at a dose of 10 mg/kg/po; assay type: ADME, organism-based; conditions: in vivo
Rattus norvegicus [4] = assay: Amount of urine output was measured in rat at a dose of 1 mg/kg/po; assay type: ADME, organism-based; conditions: in vivo
[5] = target: Vasopressin V1a receptor (Rattus norvegicus) (UniProt P30560); assay: In vitro inhibition of (Phe-3,4,5 [3H]-) AVP binding towards isolated rat hepatic V1a receptor at a dose of 10 uM
[6] = target: Vasopressin V2 receptor (Rattus norvegicus) (UniProt Q00788); assay: In vitro inhibition of (P[3H]-AVP binding towards isolated rat kidney medullary V2 receptor at a dose of 10 uM
Vasopressin V1a receptor [7] = target: T2, Vasopressin V1a receptor; assay: In vitro inhibition of (Phe-3,4,5 [3H]-) AVP binding towards isolated rat hepatic Vasopressin V1a receptor
Vasopressin V2 receptor [8] = target: T1, Vasopressin V2 receptor; assay: In vitro inhibition of (P[3H]-AVP binding towards isolated rat kidney medullary Vasopre ssin V2 receptor

T2 sequence (P30560 whole entry): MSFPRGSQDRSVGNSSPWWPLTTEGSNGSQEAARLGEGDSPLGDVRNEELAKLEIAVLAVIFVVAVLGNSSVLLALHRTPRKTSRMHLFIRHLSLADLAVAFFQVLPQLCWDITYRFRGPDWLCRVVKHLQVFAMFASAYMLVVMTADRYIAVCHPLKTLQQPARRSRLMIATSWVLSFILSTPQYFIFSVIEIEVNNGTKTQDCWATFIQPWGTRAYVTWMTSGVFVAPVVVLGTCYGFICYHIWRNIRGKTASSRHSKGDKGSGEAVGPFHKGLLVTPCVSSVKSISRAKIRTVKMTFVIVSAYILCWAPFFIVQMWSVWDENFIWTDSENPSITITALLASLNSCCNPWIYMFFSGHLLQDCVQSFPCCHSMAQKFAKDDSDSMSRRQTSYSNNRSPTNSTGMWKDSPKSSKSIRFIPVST
Vasopressin V1a receptor (Rattus norvegicus), sequence (P30560 whole entry, looked up): as the sequence (P30560 whole entry) above
T1 sequence (Q00788 whole entry): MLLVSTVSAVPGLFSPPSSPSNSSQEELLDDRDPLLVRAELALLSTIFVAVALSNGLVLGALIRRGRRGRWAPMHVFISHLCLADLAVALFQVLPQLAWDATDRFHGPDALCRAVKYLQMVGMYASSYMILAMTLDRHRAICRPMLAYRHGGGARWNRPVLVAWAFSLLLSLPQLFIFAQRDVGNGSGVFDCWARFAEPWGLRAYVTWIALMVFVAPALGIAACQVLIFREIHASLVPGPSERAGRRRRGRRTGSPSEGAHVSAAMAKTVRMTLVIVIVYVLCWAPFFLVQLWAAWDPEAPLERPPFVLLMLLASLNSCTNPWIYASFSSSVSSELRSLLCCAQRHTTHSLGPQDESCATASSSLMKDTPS
Vasopressin V2 receptor (Rattus norvegicus), sequence (Q00788 whole entry): as above

SMILES | IC50 (Vasopressin V2 receptor [1]) [nM] | IC50 (Vasopressin V1a receptor [2]) [nM] | Urine volume (Rattus norvegicus [3]) [ml 4hr-1] | also measured
O=C(Nc1ccc(C(=O)N2Cc3cccn3Cc3ccccc32)cn1)c1ccccc1-c1ccccc1 | 8.3 | 30 | 16.5 | 
Cc1ccc(F)cc1C(=O)Nc1ccc(C(=O)N2Cc3cccn3Cc3ccccc32)cn1 |  |  |  | Urine volume (Rattus norvegicus [4]): 20 ml 4hr-1
O=C(Nc1ccc(C(=O)N2Cc3cccn3Cc3ccccc32)cn1)c1ccc(F)cc1F |  |  |  | inhibition [5]: 37%; inhibition [6]: 58%
O=C(Nc1ccc(C(=O)N2Cc3cccn3Cc3ccccc32)cn1)c1ccccc1Cl |  |  | 4 | 
Cc1ccc(F)cc1C(=O)Nc1ccc(C(=O)N2Cc3ccc(CN(C)C)n3Cc3ccccc32)cn1 | 33 | 99 | 12.5 | 
Cc1ccc(F)cc1C(=O)Nc1ccc(C(=O)N2Cc3cccn3Cc3ccccc32)c(Cl)c1 [LIXIVAPTAN] | 0.5 | 82 | 35 | 
COc1cc(C(=O)Nc2ccc(C(=O)N3Cc4cccn4Cc4ccccc43)cn2)cc(OC)c1OC |  |  |  | inhibition [5]: 51%; inhibition [6]: 41%
Cc1ccc(F)cc1C(=O)N(CCCN(C)C)c1ccc(C(=O)N2Cc3cccn3Cc3ccccc32)cn1 | 290 |  |  | inhibition [5]: 68%
O=C(Nc1ccc(C(=O)N2Cc3cccn3Cc3ccccc32)cn1)c1cc(-c2ccccn2)ccc1Cl | 480 | 260 |  | 
Nc1ccccc1C(=O)Nc1ccc(C(=O)N2Cc3cccn3Cc3ccccc32)cn1 | 210 |  |  | inhibition [5]: 29%
O=C(Nc1ccc(C(=O)N2Cc3cccn3Cc3ccccc32)cn1)c1ccccc1[N+](=O)[O-] | 160 | 920 |  | 
O=C(Nc1ccc(C(=O)N2Cc3cccn3Cc3ccccc32)cn1)c1c(F)cccc1Cl | 4 | 40 | 15.8 | 

More lines, main results first:

IC50 (Vasopressin V2 receptor [1]) [nM] | IC50 (Vasopressin V1a receptor [2]) [nM] | Urine volume (Rattus norvegicus [3]) [ml 4hr-1] | SMILES | also measured
7.3 | 82 | 16.5 | O=C(Nc1ccc(C(=O)N2Cc3cccn3Cc3ccccc32)cn1)c1cc(Br)ccc1Cl | 
4.3 | 100 | 19.3 | O=C(Nc1ccc(C(=O)N2Cc3cccn3Cc3ccccc32)cn1)c1cc(Cl)ccc1Cl | 
 |  | 30.5 | O=C(Nc1ccc(C(=O)N2Cc3cccn3Cc3ccccc32)cn1)c1ccc(F)cc1Cl | 
240 | 310 | 11.8 | O=C(Nc1ccc(C(=O)N2Cc3cccn3Cc3ccccc32)cn1)c1cc(F)ccc1F | 
 |  | 5.3 | Cc1ccccc1C(=O)Nc1ccc(C(=O)N2Cc3cccn3Cc3ccccc32)cn1 | IC50 (Vasopressin V1a receptor [7]): 21 nM; IC50 (Vasopressin V2 receptor [8]): 3 nM
 | 9 | 34 | Cc1c(F)cccc1C(=O)Nc1ccc(C(=O)N2Cc3cccn3Cc3ccccc32)cn1 | 
